Row | SMILES | logP
1 | CC(=O)NCc1ccc(OCC(O)CNC(C)C)cc1 (configuration not stated) | 0.32
2 | S=C=Nc1cccc(Cl)c1 | 3.36
3 | Nc1c(Cl)cccc1Cl | 2.76
4 | CCOC(=O)OCn1c(=O)[nH]cc(F)c1=O | 0.15
5 | Cc1c(C)c(C)c(C)c(C)c1C | 5.11
6 | Nc1ccc(C(=O)O)cc1I | 2.36
7 | COC(=O)c1c(C)[nH]c(-c2cc(Cl)ccn2)c1C(=O)OC | 2.63
8 | CC(C)(C)C(COc1ccc(Cl)cc1)OC(=S)n1ccnc1 (configuration not stated) | 4.96
9 | CS(=O)(=O)OCCC[Se]CCCOS(C)(=O)=O | 0.38
10 | Cc1ccc(C(=O)CCN2CCCCC2)cc1 | 3.55
11 | COc1ccc(OCC(OC(=O)n2ccnc2)C(C)(C)C)cc1 (configuration not stated) | 3.46
12 | Cc1c(O)c(=O)ccn1CCC(=O)N(C)C | -1.16
13 | CN(C)C(=O)NCCCn1nc(-c2ccccc2)ccc1=O | 1.61
14 | CC(=O)NC1=NC(=O)C(=Cc2ccc([N+](=O)[O-])o2)S1 | 1.03
15 | CCOC(=O)OCn1cc(F)c(=O)[nH]c1=O | -0.04
16 | OC[C@@H](O)[C@H]1O[C@@H]2O[C@H](C(Cl)(Cl)Cl)O[C@@H]2[C@H]1O | 1.02
17 | CCCn1ccc(=O)c(O)c1CC | 0.7
18 | Cn1cnc([N+](=O)[O-])c1Cl | 1.06
19 | O=c1[nH]c(=O)n(Cc2ccccc2)cc1F | 0.89
20 | CC(C)Cc1ccc(CC(=O)O)cc1 | 3.35
21 | CC(C)(C)C(COc1ccc(Br)cc1)OC(=S)n1ccnc1 (configuration not stated) | 5.11
22 | CNC(=O)Oc1cc(C)ccc1C(C)C | 2.84
23 | CC(C)(C)C(COc1ccc(Cl)cc1)OC(=O)n1ccnc1 (configuration not stated) | 4.19
24 | CCN(CC)C(=O)Nc1ccc(OCC(O)CNC(C)(C)C)c(C(C)=O)c1 (configuration not stated) | 1.92

Row | SMILES | logP
25 | CC(=O)Nc1nc(NC(O)CC(O)CO)c(Cl)nc1[N+](=O)[O-] (configuration not stated) | -0.66
26 | CCn1cc(C(=O)OCOC(C)=O)c(=O)c2ccc(C)nc21 | 1.21
27 | CCC(=O)O[C@]1(C(=O)CCl)[C@@H](C)C[C@H]2[C@@H]3CCC4=CC(=O)C=C[C@]4(C)[C@@]3(F)[C@@H](O)C[C@@]21C | 3.5
28 | C=C1C(=O)OC2C1CCC(C)C1(O)CCC(=O)C21C (configuration not stated) | 0.83
29 | OC(Cn1ccnc1)(c1ccc(F)cc1)c1ccc(-c2ccncc2)cc1 (configuration not stated) | 2.47
30 | COc1cc(S(C)=O)ccc1-c1nc2ncc(N)cc2[nH]1 (configuration not stated) | 0.33
31 | O=C1CN=C(c2ccccc2)c2cc(Cl)ccc2N1CC(F)(F)F | 3.97
32 | CCc1[nH]ccc(=O)c1O | 0.05
33 | CCCCCCCC=CCCCCCCC(=O)O | 6.58
34 | NCCCCN | -0.7
35 | CCOP(=O)(OCC)Oc1ccc([N+](=O)[O-])cc1 | 1.98
36 | O=c1[nH]cc(F)c(=O)n1Oc1ccccc1 | 0.8
37 | NC(=S)NNC(=O)c1ccc2c(c1)OCO2 | 0.21
38 | CCNC(=O)NCCCn1nc(-c2ccccc2)ccc1=O | 1.68
39 | O=C(O)Cn1nnc2ccccc21 | -1.88
40 | CNc1nnc(-c2cc(Cl)cc(Cl)c2)c(=O)n1N | 1.91
41 | Cc1cc(N)ccc1C(=O)O | 1.14
42 | Nc1nc(=O)c2[nH]c(N)c(Cc3ccsc3)c2[nH]1 | 1.08
43 | C=CC12COC(=O)C(=C)C1C1OC(=O)C(=C)C1C(OC(=O)C(=C)C)C2 (configuration not stated) | 1.56
44 | O=c1ccnc2n1CCCC2 | -0.14
45 | CC(C)(C)NCC(O)COc1cccc2c1C[C@H](O)[C@H](O)C2 (some centres not stated) | 0.81
46 | COC(=O)NC1=NCC(c2cccc(Br)c2)N1 (configuration not stated) | 2.09
47 | CCc1c(O)c(=O)ccn1C(C)C | 0.73
48 | O=C1c2ccccc2C(=O)C1c1ccc(C(F)(F)F)cc1 | 3.78

Row | SMILES | logP
49 | COc1cc(NS(=O)(=O)c2ccc(N)cc2)ncn1 | 0.7
50 | Cc1ccc(CC#N)cc1 | 1.67
51 | Oc1ccc(C(O)(Cn2ccnc2)c2ccc(-c3ccncc3)cc2)cc1 (configuration not stated) | 2.49
52 | CCOc1ccc(OCC(OC(=S)n2ccnc2)C(C)(C)C)cc1 (configuration not stated) | 4.58
53 | O=C1N[C@@H](Cc2ccccc2)C(=O)N[C@H]1Cc1ccccc1 | 1.59
54 | CN(C)C(=O)OCc1cccc([N+](=O)[O-])c1 | 1.98
55 | O=C1CN=C(c2ccccn2)c2cc(Br)ccc2N1 | 2.05
56 | CCCCC(NC(Cc1ccccc1)C(=O)N1CCC(OCOC)CC1)C(=O)NC(CC1CCCCC1)C(O)CC(C(=O)NCCCN1CCOCC1)C(C)C (configuration not stated) | 4.5
57 | COc1cc(N)ccc1C(=O)O | 0.45
58 | O=C(O)Cc1cc(O)ccc1O | 0.86
59 | COc1ccc(CON2C(=O)CC3(CCCC3)C2=O)cc1 | 2.23
60 | NS(=O)(=O)c1cc2c(cc1Cl)NC(C(Cl)(Cl)Cl)NS2(=O)=O (configuration not stated) | 0.82
61 | N#Cc1ccccn1 | 0.45
62 | CC(=O)Nc1nc(=O)cc(-c2ccc([N+](=O)[O-])o2)s1 | 1.01
63 | CCNP(=O)(OCC)ON=C(C#N)c1ccc(OC)cc1 (configuration not stated) | 2.39
64 | O=C1CC2(CCCC2)C(=O)N1OCc1ccccc1 | 2.3
65 | Nc1cccc(Cl)c1Cl | 2.82
66 | NC(=O)Nc1ccc(C(=O)O)cc1 | 0.73
67 | CCCCCCN(C)C(=O)c1cccc(Oc2ccccc2)c1 | 5.01
68 | CC1c2cccc(O)c2C(=O)C2=C(O)C3(O)C(=O)C(C(N)=O)=C(O)C(N(C)C)C3C(O)C21 (configuration not stated) | -0.02
69 | CC(=O)O[C@H]1C[C@H](O[C@H]2[C@@H](O)C[C@H](O[C@H]3[C@@H](O)C[C@H](OC4CC[C@@]5(C)[C@H](CC[C@@H]6[C@@H]5CC[C@]5(C)[C@@H](C7=CC(=O)OC7)CC[C@]65O)C4)O[C@@H]3C)O[C@@H]2C)O[C@H](C)[C@H]1O[C@@H]1O[C@H](CO)[C@@H](O)[C@H](O)[C@H]1O (some centres not stated) | 1.23
70 | Cc1nnc(C(C)(C)C)c(=O)n1N | 1.03
71 | CC1=C(C(=O)O)N2C(=O)C(NC(NC(=O)c3nn(-c4ccccc4)c(=O)[nH]c3=O)c3ccc(O)cc3)C2SC1 (configuration not stated) | 1.26
72 | O=C(OC[C@H]1O[C@@H](n2cc(I)c(=O)[nH]c2=O)C[C@@H]1O)c1ccccc1 | 1.4

Row | SMILES | logP
73 | CCNC1C2CCC(C2)C1c1ccccc1 (configuration not stated) | 3.2
74 | CCOC(=O)C1=C(C)NC(C)=C(C(=O)OC)C1c1cccc(Cl)c1Cl (configuration not stated) | 3.86
75 | O=C(Cc1cccnc1)NN1CC=CCC1 | 0.05
76 | CN(C)C(=O)NCCCCn1nc(-c2ccccc2)ccc1=O | 1.58
77 | CCOC(=O)n1c(NC(=O)OC)nc2cc(C(=O)c3ccccc3)ccc21 | 2.93
78 | CCC12CCN(CC3(O)CC3)C(Cc3ccc(O)cc31)C2(C)C (configuration not stated) | 3.82
79 | NCc1ccccc1Sc1ccccc1CO | 2.39
80 | CN(Cc1ccc(Br)cc1)N=O | 1.57
81 | CC(C)c1ccc(N)cc1 | 2.49
82 | CCCC(CC)C(=O)O (configuration not stated) | 2.23
83 | COc1ccc(COCc2cccc(CN3CCOCC3)c2)cc1 | 2.83
84 | COC(=O)c1cnc2n(c1=O)C(C)CCC2 (configuration not stated) | 0.16
85 | CCN1C(=O)NC(Cc2ccccc2)C1=O (configuration not stated) | 1.61
86 | COC(=O)Nc1nc2cc(C(=O)c3ccccc3)ccc2[nH]1 | 2.83
87 | Cn1nnnc1SCC1=C(C(=O)O)N2C(=O)[C@@H](NC(=O)[C@H](O)c3ccccc3)[C@H]2SC1 | 0.5
88 | CCOC(=O)CCCO | 0.43
89 | CC1CCCC2C1N2CC(O)Cn1ccnc1 (configuration not stated) | 1.55
90 | NC(=S)NNCc1ccc2c(c1)OCO2 | 0.14
91 | OC[C@@H](O)[C@@H](O)[C@H](O)[C@@H](O)CO | -2.2
92 | COC(=O)NC1=NCC(c2ccc(Cl)cc2)N1C (configuration not stated) | 2.17
93 | Cc1cc2n(c1C(=O)c1ccc(Cl)cc1)CCC2C(=O)O (configuration not stated) | 3.6
94 | CC(CF)NCC(O)COc1cccc2[nH]c3ccccc3c12 (configuration not stated) | 2.81
95 | CC(C(=O)O)N(C(=O)c1ccccc1)c1ccc(F)c(Cl)c1 (configuration not stated) | 2.9
96 | Clc1cccc(Cl)c1Cl | 4.05

Row | SMILES | logP
97 | CCCCCC(C)N (configuration not stated) | 2.4
98 | Nc1c(Cl)c(Cl)cc(Cl)c1Cl | 4.1
99 | CCOC(=O)Cn1cnc(I)c1[N+](=O)[O-] | 0.93
100 | Clc1cc(Cl)cc(-c2cc(Cl)cc(Cl)c2)c1 | 6.6
101 | COC(=O)c1c(C)[nH]c(-c2cccc(Cl)n2)c1C(=O)OC | 2.65
102 | Nc1ccc(C(F)(F)F)cc1 | 1.95
103 | CC1=C(C)C(=O)C(Cc2cccnc2)=C(C)C1=O | 2.55
104 | Cc1c(O)c(=O)ccn1CCCCO | -0.74
105 | Nc1ccc(S(=O)(=O)c2c(O)cc(O)cc2O)cc1 | 1.53
106 | CCCCC1C(=O)NC(=O)N(C)C1=O (configuration not stated) | 1.1
107 | Cc1c(O)c(=O)ccn1CCC(=O)NC(C)C | -0.47
108 | CC(C)(C)C(=O)OCC1OC(n2cc(I)c(=O)[nH]c2=O)CC1O (configuration not stated) | 1.34
109 | CNC12CCCCC1COc1ccccc12 (configuration not stated) | 3.31
110 | CN1C(=O)C(C)(C2=CCCCC2)C(=O)N=C1O (configuration not stated) | 1.98
111 | CC1c2nc3ccccc3c(=O)n2CN1C (configuration not stated) | 0.85
112 | CC(N)C(=O)O (configuration not stated) | -2.85
113 | CCCCCCCCCCCCOC(=O)N(C)SN(C)C(=O)Oc1ccc2c(c1)OCO2 | 7.39
114 | Clc1cccc2cccc(Cl)c12 | 4.3
115 | O=C(O)COc1cc(Cl)cc(Cl)c1 | 2.84
116 | CCCN1CCOC2c3cccc(O)c3OCC21 (configuration not stated) | 1.93
117 | Nc1ccc(C(=O)O)cc1N | 0.13

Reference: the OPERA property sets (Mansouri et al. 2018)
